Laboratory results: ChEMBL document CHEMBL1122447, “2-Acetylpyridine thiosemicarbazones. 5. 1-[1-(2-Pyridyl)ethyl]-3-thiosemicarbazides as potential antimalarial agents” (1983)

Legend:
Plasmodium berghei [1] = test: Increased mean survival time in drug-sensitive Plasmodium berghei infected mice (Mus musculus) at 640 mg/kg; cured 2 of 5; format: functional, organism-based; set-up: dose 640 mg/kg
Plasmodium berghei [2] = test: Increased mean survival time in drug-sensitive Plasmodium berghei infected mice (Mus musculus) at 160 mg/kg; cured 3 of 5; format: functional, organism-based; set-up: dose 160 mg/kg
Plasmodium berghei [3] = test: Increased mean survival time in drug-sensitive Plasmodium berghei infected mice (Mus musculus) at 40 mg/kg dose; format: functional
Plasmodium berghei [4] = test: Increased mean survival time in drug-sensitive Plasmodium berghei infected mice (Mus musculus) at 80 mg/kg; cures 4 of 5; format: functional, organism-based; set-up: dose 80 mg/kg
Plasmodium berghei [5] = test: Increased mean survival time in drug-sensitive Plasmodium berghei infected mice (Mus musculus) at 320 mg/kg; cured 2 of 5; format: functional, organism-based; set-up: dose 320 mg/kg
Plasmodium berghei [6] = test: Increased mean survival time in drug-sensitive Plasmodium berghei infected mice (Mus musculus) at 160 mg/kg; cured 2 of 5; format: functional, organism-based; set-up: dose 160 mg/kg
Plasmodium berghei [7] = test: Increased mean survival time in drug-sensitive Plasmodium berghei in mice (Mus musculus) at 80 mg/kg dose; format: functional
Plasmodium berghei [8] = test: Increased mean survival time in drug-sensitive Plasmodium berghei infected mice (Mus musculus) at 320 mg/kg; cured 4 of 5
Plasmodium berghei [9] = test: Increased mean survival time in drug-sensitive Plasmodium berghei infected mice (Mus musculus) at 640 mg/kg dose; format: functional
Plasmodium berghei [10] = test: Antimalarial activity against Plasmodium berghei infected mice (Mus musculus) at 320 mg/kg; toxic in 5 of 5; format: functional, organism-based; set-up: dose 320 mg/kg
Plasmodium berghei [11] = test: Antimalarial activity as increased MST in Plasmodium berghei infected mice (Mus musculus) at 20 mg/kg; format: functional
Plasmodium berghei [12] = test: Antimalarial activity as increased MST in Plasmodium berghei infected mice (Mus musculus) at 40 mg/kg; Toxic in 1 of 5; format: functional
Plasmodium berghei [13] = test: Antimalarial activity against Plasmodium berghei infected mice (Mus musculus) at 640 mg/kg; toxic in 5 of 5; format: functional, organism-based; set-up: dose 640 mg/kg
Plasmodium berghei [14] = test: Increased mean survival time in drug-sensitive Plasmodium berghei infected mice (Mus musculus) at 160 mg/kg; toxic in 5 of 5; format: functional, organism-based; set-up: dose 160 mg/kg
Plasmodium berghei [15] = test: Increased mean survival time in drug-sensitive Plasmodium berghei infected mice (Mus musculus) at 640 mg/kg; toxic in 5 of 5; format: functional, organism-based; set-up: dose 640 mg/kg
Plasmodium berghei [16] = test: Antimalarial activity as increased MSTin Plasmodium berghei infected mice (Mus musculus) at 640 mg/kg; Toxic in 3 of 5; format: functional
Plasmodium berghei [17] = test: Antimalarial activity as increased MST in Plasmodium berghei infected mice (Mus musculus) at 40 mg/kg; format: functional
Plasmodium berghei [18] = test: Antimalarial activity as increased MST in Plasmodium berghei infected mice (Mus musculus) at 160 mg/kg; format: functional
Plasmodium berghei [19] = test: Increased mean survival time in drug-sensitive Plasmodium berghei infected mice (Mus musculus) at 40 mg/kg; toxic in 2 of 5; format: functional, organism-based; set-up: dose 40 mg/kg
Plasmodium berghei [20] = test: Increased mean survival time in drug-sensitive Plasmodium berghei infected mice (Mus musculus) at 40 mg/kg; cured 3 of 5; format: functional, organism-based; set-up: dose 40 mg/kg
Plasmodium berghei [21] = test: Increase in mean survival time in drug-sensitive Plasmodium berghei infected mice (Mus musculus) at 160 mg/kg dose; format: functional
Plasmodium berghei [22] = test: Antimalarial activity against Plasmodium berghei infected mice (Mus musculus) at 160 mg/kg; toxic in 5 of 5; format: functional, organism-based; set-up: dose 160 mg/kg
Plasmodium berghei [23] = test: Antimalarial activity against Plasmodium berghei infected mice (Mus musculus) at 160 mg/kg; cured 1 of 5; format: functional, organism-based; set-up: dose 160 mg/kg
Plasmodium berghei [24] = test: Antimalarial activity against Plasmodium berghei infected mice (Mus musculus) at 40 mg/kg; cured 1 of 5; format: functional, organism-based; set-up: dose 40 mg/kg
Plasmodium berghei [25] = test: Antimalarial activity against Plasmodium berghei infected mice (Mus musculus) at 160 mg/kg; toxic in 3 of 5; format: functional, organism-based; set-up: dose 160 mg/kg
Plasmodium berghei [26] = test: Increased mean survival time in drug-sensitive Plasmodium berghei infected mice (Mus musculus) at 640 mg/kg; toxic in 4 of 5; format: functional
Plasmodium berghei [27] = test: Increased mean survival time in drug-sensitive Plasmodium berghei infected mice (Mus musculus) at 20 mg/kg; cured 1 of 5; format: functional, organism-based; set-up: dose 20 mg/kg
Plasmodium berghei [28] = test: Increased mean survival time in drug-sensitive Plasmodium berghei infected mice (Mus musculus) at 320 mg/kg dose; format: functional
Plasmodium berghei [29] = test: Increased mean survival time in drug-sensitive Plasmodium berghei infected mice (Mus musculus) at 80 mg/kg; cured 3 of 5; format: functional, organism-based; set-up: dose 80 mg/kg
Plasmodium berghei [30] = test: Increased mean survival time in drug-sensitive Plasmodium berghei infected mice (Mus musculus) at 160 mg/kg; cured 5 of 5; format: functional, organism-based; set-up: dose 160 mg/kg
Plasmodium berghei [31] = test: Increased mean survival time in drug-sensitive Plasmodium berghei infected mice (Mus musculus) at 20 mg/kg; cured 3 of 5; format: functional, organism-based; set-up: dose 20 mg/kg
Plasmodium berghei [32] = test: Increased mean survival time in drug-sensitive Plasmodium berghei infected mice (Mus musculus) at 80 mg/kg; cured 5 of 5; format: functional, organism-based; set-up: dose 80 mg/kg
Plasmodium berghei [33] = test: Increased mean survival time in drug-sensitive Plasmodium berghei infected mice (Mus musculus) at 40 mg/kg; cured 4 of 5; format: functional, organism-based; set-up: dose 40 mg/kg

Q: Which results are given for C/C(=N\NC(=S)N1CCCCCC1)c1ccccn1?
A: Survival time (Plasmodium berghei [1]): Cured 2 of 5 mice; toxic in 3 of 5 mice; Survival time (Plasmodium berghei [2]): Cured 3 of 5 mice; toxic in 1 of 5 mice; Survival time (Plasmodium berghei [3]): 6.2 days; Survival time (Plasmodium berghei [4]): Cured 4 of 5 mice; Survival time (Plasmodium berghei [5]): Cured 2 of 5 mice; toxic in 2 of 5 mice

Q: Which Survival time (Plasmodium berghei [6]) does the source give for C/C(=N\N=C(/S)N(C)C1CCCCC1)c1ccccn1 here?
A: Cured 2 of 5 mice

Q: And the Survival time (Plasmodium berghei [3])?
A: 3.7 days

Q: And the Survival time (Plasmodium berghei [7])?
A: 9.6 days

Q: And the Survival time (Plasmodium berghei [8])?
A: Cured 4 of 5 mice

Q: And the Survival time (Plasmodium berghei [9])?
A: 12.1 days

Q: What does the source list for CC(N/N=C(\S)N(C)C)c1ccccn1 (stereo not given)?
A: Survival time (Plasmodium berghei [10]): Toxic in 5 of 5 mice; Survival time (Plasmodium berghei [11]): 2 days; Survival time (Plasmodium berghei [12]): 3.2 days; Survival time (Plasmodium berghei [13]): Toxic in 5 of 5 mice

Q: With C/C(=N\NC(=S)N1CCCC1)c1ccccn1 as the molecule, how does the Survival time (Plasmodium berghei [14]) read?
A: Toxic in 5 of 5 mice

Q: And the Survival time (Plasmodium berghei [3])?
A: 8.9 days

Q: What about the Survival time (Plasmodium berghei [15]) of the same molecule?
A: Toxic in 5 of 5 mice

Q: CC(N/N=C(\S)NCc1ccccc1)c1ccccn1 (stereo not given) was tested. Which Survival time (Plasmodium berghei [16]) did it give?
A: 2.4 days

Q: What about the Survival time (Plasmodium berghei [17]) of the same molecule?
A: -0.1 days

Q: And the Survival time (Plasmodium berghei [18])?
A: 0.7 days

Q: For CCOC(=O)N1CCN(/C(S)=N/N=C(\C)c2ccccn2)CC1, which Survival time (Plasmodium berghei [14]) is on record?
A: Toxic in 5 of 5 mice

Q: And the Survival time (Plasmodium berghei [19])?
A: Cured 2 of 5 mice; toxic in 2 of 5 mice

Q: What about the Survival time (Plasmodium berghei [15]) of the same molecule?
A: Toxic in 5 of 5 mice

Q: Which results are given for C/C(=N\N=C(/S)N1CCC(C)CC1)c1ccccn1?
A: Survival time (Plasmodium berghei [14]): Toxic in 5 of 5 mice; Survival time (Plasmodium berghei [20]): Cured 3 of 5 mice; Survival time (Plasmodium berghei [15]): Toxic in 5 of 5 mice

Q: Which Survival time (Plasmodium berghei [1]) does the source give for C/C(=N\N=C(/[SeH])N1CCCCCC1)c1ccccn1 here?
A: Cured 2 of 5 mice

Q: What about the Survival time (Plasmodium berghei [21]) of the same molecule?
A: 7.3 days

Q: And the Survival time (Plasmodium berghei [3])?
A: 1.7 days

Q: What about the Survival time (Plasmodium berghei [7]) of the same molecule?
A: 4.6 days

Q: And the Survival time (Plasmodium berghei [5])?
A: Cured 2 of 5 mice

Q: Which results are given for CC(N/N=C(\S)N1CCCCCC1)c1ccccn1 (stereo not given)?
A: Survival time (Plasmodium berghei [3]): 2.4 days; Survival time (Plasmodium berghei [22]): Toxic in 5 of 5 mice; Survival time (Plasmodium berghei [13]): Toxic in 5 of 5 mice

Q: Which Survival time (Plasmodium berghei [23]) does the source give for CC1CCN(/C(S)=N/NC(C)c2ccccn2)CC1 (stereo not given) here?
A: Cured 1 of 5 mice

Q: What about the Survival time (Plasmodium berghei [24]) of the same molecule?
A: Cured 1 of 5 mice

Q: And the Survival time (Plasmodium berghei [13])?
A: Toxic in 5 of 5 mice

Q: What about the Survival time (Plasmodium berghei [25]) of the same molecule?
A: Toxic in 3 of 5 mice

Q: What does the source list for C/C(=N\N=C(/S)N1CC2CCC(CC2)C1)c1ccccn1?
A: Survival time (Plasmodium berghei [26]): 0.4 days; Survival time (Plasmodium berghei [27]): Cured 1 of 5 mice; Survival time (Plasmodium berghei [20]): Cured 3 of 5 mice; Survival time (Plasmodium berghei [28]): 0.2 days; Survival time (Plasmodium berghei [29]): Cured 3 of 5 mice; Survival time (Plasmodium berghei [30]): Cured 5 of 5 mice

Q: Which results are given for C/C(=N\NC(=S)N1CCN(c2ccccn2)CC1)c1ccccn1?
A: Survival time (Plasmodium berghei [31]): Cured 3 of 5 mice; Survival time (Plasmodium berghei [6]): Cured 2 of 5 mice; Survival time (Plasmodium berghei [32]): Cured 5 of 5 mice; Survival time (Plasmodium berghei [28]): 0.7 days; Survival time (Plasmodium berghei [33]): Cured 4 of 5 mice; Survival time (Plasmodium berghei [15]): Toxic in 5 of 5 mice
